This assay deals with Proto-oncogene tyrosine-protein kinase Src (Homo sapiens, UniProt P12931). The experiment in a line: Homogeneous Time-resolved Fluorescence (HTRF) Assay. The note with it: pH 7.5; 37 °C. The protocol:
Kinase assays were performed using the europium/APC detection format (LANCE, Perkin Elmer). HTRF is based on the proximity of europium cryptate (donor fluorophore)-labeled antiphosphotyrosine and streptavidin labeled with APC(allophycocyanin), which have been brought together by a binding reaction. When the two entities come into close proximity and upon excitation, energy transfer occurs and APC re-emits at 665 nm.

The structures appear in SMILES notation.

For one compound, IC50 results are on record in BindingDB's records for doi:10.1021/jm049237m (Wyeth Research, 2004).

Sequence of Proto-oncogene tyrosine-protein kinase Src (P12931 2-536 limits assumed): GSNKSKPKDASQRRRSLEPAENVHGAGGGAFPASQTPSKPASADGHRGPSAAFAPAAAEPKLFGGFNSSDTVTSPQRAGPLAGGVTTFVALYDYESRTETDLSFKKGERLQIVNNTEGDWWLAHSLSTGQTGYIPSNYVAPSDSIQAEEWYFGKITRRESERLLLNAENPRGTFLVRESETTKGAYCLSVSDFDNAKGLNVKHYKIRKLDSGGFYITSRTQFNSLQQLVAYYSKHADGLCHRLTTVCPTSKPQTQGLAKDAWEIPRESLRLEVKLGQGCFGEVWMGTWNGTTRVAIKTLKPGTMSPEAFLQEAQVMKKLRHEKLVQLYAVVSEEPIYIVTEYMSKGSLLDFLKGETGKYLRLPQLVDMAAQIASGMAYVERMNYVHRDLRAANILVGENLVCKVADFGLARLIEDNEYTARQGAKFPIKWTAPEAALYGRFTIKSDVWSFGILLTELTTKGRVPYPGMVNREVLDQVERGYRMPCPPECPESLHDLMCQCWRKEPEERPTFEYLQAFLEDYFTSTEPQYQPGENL

On to `COc1cc(Nc2c(C#N)cnc3cc(-c4ccccc4CN4CCN(C)CC4)sc23)c(Cl)cc1Cl` [7-[(2,4-dichloro-5-methoxyphenyl)amino]-2-{2-[(4-methylpiperazin-1-yl)methyl]phenyl}thieno[3,2-b]pyridine-6-carbonitrile], for which the IC50 – broadly, the concentration that inhibits the measured activity by half – was more than 10 µM.
